{"source": "patent US11608328B2", "about": "“Chemical probes to identify anti-mycobacterial MmpL3 inhibitors” (Creighton University, priority 2019, dated 2023)", "data": [{"target": "MmpL3tb(G253E) (Mycobacterium tuberculosis, UniProt P9WJV5, G253E)", "format": "binding", "values": [{"molecule": "C[C@@H]1[C@H]2C[C@@H](C[C@H]1NC(=O)c1cc3ccccc3[nH]1)C2(C)C", "note": "[North 4]", "BLI binding to MmpL3tb(G253E) versus WT": "unaltered by the G253E mutation"}, {"molecule": "Cc1cc(C)c2cc(C(=O)NC3CCCCCCC3)[nH]c2c1", "note": "[North 21]", "BLI binding to MmpL3tb(G253E) versus WT": "no binding to MmpL3tb(G253E) was detected"}, {"molecule": "CC(C)=CCC/C(C)=C/CNCCNC1C2CC3CC(C2)CC1C3", "note": "(stereo not drawn) [SQ109]", "BLI binding to MmpL3tb(G253E) versus WT": "no binding to MmpL3tb(G253E) was detected"}]}]}
